# Measurements reported in patent US20250002597A1, “METHOD FOR OPTIMIZING DRUG SELECTION” (priority 2023, published 2025).
# Test system: T-lymphocytes
# Assay: Lymphocyte toxicity assay (LTA)
# Type: cell-based, human
# Conditions: for Viability %: post-mastectomy
# Text: The present invention is particularly effective in determining the efficacy of the drug alone by measuring the lymphocyte toxicity assay and then combining the prescribed drug with various anabolic steroidal compounds.
# Exemplifying the present invention is Table 2 below which sets forth a lymphocyte toxicity assay for a post-mastectomy treatment for reducing pain by measuring the efficacy of combining a known drug, Inflectra, with a steroidal compound which is an anti-tumor necrosis alpha inhibitor as the base.
# [1] = single therapeutic, patient blood cells, untreated cell control = 100%
Compound,Viability % [1] [%],Toxicity to the cells (interpretation in words) (patient blood cells exposed to the therapeutics),Toxicity [1] [%]
INFLECTRA: known drug; anti-tumor necrosis alpha inhibitor,160,–,–
C[C@]12CC[C@H]3[C@@H](CCC4=CC(=O)CC[C@@H]43)[C@@H]1CC[C@@H]2O [Nandrolone],158,–,–
C[C@]12COC(=O)C[C@@H]1CC[C@@H]1[C@@H]2CC[C@@]2(C)[C@H]1CC[C@]2(C)O [Oxandrolone],117,–,–
C[C@]12CC[C@H]3[C@@H](CCC4=CC(=O)CC[C@@]43C)[C@@H]1CC[C@@H]2O [Testosterone],150,–,–
C[C@]12Cc3c[nH]nc3C[C@@H]1CC[C@@H]1[C@@H]2CC[C@@]2(C)[C@H]1CC[C@]2(C)O [Stanozolol],–,"The only medication that was toxic to the cell was Stanozolol. However, the combination of Stanozolol",14
